Data from patent publication US20190322643A1 (Georgia State University Research Foundation, Inc., priority 2016, published 2019).

Assays:
MDA-MB-231 = assay: Cytotoxicity / anti-proliferation assay (CCK-8), MDA-MB-231; type: cell-based; conditions: Homo sapiens, 72 h, CCK-8 kit, read-out: EC50 MDA-MB-231
Method: A549, MDA-MB-231, HCT-8, MCF-7, and HEK293 cells were seeded at 8000-10000 cells (100 μl) in white 96-well plates and pre-incubate the plate for 24 h under standard cell culture conditions, respectively. Then the cells were exposed to the different inhibitors with various concentrations for 72 h. Finally, 10 μl of CCK-8 kit solution was added to each well and incubated for 3-4 hours under standard cell culture conditions, and the 96 well plates were measured the absorbance at 450 nm using Perkin-Elmer Wallac Victor ^3V 1420 multi label plate reader (Perkin-Elmer, Wellesley, USA). EC50s were calculated using GraphPad Prizm statistical package with sigmoidal variable slope dose response curve fit.
Cell anti-proliferation assays were performed to determine the toxicity of these inhibitors. Several cell lines (MDA-MB-231, MCF-7, A549 and HCT-8) were incubated and then treated with varying concentrations of the inhibitors for 72 h, respectively. […] These compounds were further evaluated against the control cell line HEK293 to test their toxicity with a non-cancerous cell line.

G9a = target: T1, G9a (Homo sapiens, UniProt Q96KQ7); assay: H3K9Me2 cell immunofluorescence in-cell Western (ICW) assay; type: cell-based; conditions: MDA-MB-231 cell line, 48 h
T1 construct: endogenous in cells; host or cells: MDA-MB-231
T1 sequence (Q96KQ7 1-1210): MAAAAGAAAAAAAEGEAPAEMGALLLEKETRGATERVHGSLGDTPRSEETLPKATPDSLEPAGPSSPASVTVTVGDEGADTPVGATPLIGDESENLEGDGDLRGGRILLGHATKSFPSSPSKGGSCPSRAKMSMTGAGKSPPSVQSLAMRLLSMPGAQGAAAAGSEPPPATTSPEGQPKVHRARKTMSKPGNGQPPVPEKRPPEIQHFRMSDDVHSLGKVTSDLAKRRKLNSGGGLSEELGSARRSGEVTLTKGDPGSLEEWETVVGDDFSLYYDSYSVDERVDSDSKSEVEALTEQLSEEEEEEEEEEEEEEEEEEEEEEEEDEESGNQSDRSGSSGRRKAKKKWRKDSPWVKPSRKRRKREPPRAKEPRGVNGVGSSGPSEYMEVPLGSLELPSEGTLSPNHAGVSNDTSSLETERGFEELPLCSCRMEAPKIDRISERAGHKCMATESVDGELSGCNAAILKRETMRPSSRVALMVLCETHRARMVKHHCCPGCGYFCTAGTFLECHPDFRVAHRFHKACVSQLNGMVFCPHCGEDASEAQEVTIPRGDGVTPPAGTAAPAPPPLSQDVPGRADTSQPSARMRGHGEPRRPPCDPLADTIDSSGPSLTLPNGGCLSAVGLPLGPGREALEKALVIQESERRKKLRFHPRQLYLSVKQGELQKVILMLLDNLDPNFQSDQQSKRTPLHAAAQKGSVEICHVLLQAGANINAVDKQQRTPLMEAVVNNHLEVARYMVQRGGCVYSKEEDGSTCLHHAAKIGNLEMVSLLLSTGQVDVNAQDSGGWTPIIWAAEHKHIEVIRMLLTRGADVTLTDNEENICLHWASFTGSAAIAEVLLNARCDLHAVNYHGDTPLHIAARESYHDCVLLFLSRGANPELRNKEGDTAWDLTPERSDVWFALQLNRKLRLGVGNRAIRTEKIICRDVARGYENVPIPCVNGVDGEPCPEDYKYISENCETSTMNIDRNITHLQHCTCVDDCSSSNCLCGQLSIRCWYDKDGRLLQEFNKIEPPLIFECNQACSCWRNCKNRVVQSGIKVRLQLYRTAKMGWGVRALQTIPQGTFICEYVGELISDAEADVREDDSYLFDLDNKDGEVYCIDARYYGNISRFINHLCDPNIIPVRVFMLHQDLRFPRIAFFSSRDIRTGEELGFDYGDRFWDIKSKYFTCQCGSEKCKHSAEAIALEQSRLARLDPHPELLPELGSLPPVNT

IC50 (G9a): > 100 µM
Structure (SMILES): CN1CCCN(c2nc(NC3CCN(Cc4ccccc4)CC3)c3ccc(OCCCCCCC(=O)NO)cc3n2)CC1 [Compound 30]
EC50 (MDA-MB-231): 24 ± 3.64 µM
